Experimental data published in ChEMBL document CHEMBL1944613, “Cloning, characterization and sulfonamide inhibition studies of an α-carbonic anhydrase from the living fossil sponge Astrosclera willeyana” (Bioorg Med Chem, 2012).

Molecular target: T1, Astrosclerin-3 (Astrosclera willeyana, UniProt A6YCJ1)
T1 sequence (A6YCJ1 whole entry): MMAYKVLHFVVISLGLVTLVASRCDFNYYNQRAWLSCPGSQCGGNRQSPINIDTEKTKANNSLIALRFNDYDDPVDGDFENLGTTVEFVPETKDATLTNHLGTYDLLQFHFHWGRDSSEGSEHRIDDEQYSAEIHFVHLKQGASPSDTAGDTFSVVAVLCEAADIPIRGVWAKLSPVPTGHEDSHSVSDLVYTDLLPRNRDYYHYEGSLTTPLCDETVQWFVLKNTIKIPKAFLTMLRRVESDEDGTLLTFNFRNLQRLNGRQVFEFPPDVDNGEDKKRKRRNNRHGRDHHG
Description: Inhibition of GST-tagged astrosclera willeyana Astrosclerin-3 expressed in Escherichia coli after 15 mins preincubation by stopped flow CO2 hydration assay

## Cn1nc(S(N)(=O)=O)sc1=N
  Ki: 393 nM

## Nc1ccc(S(=O)(=O)Nc2nnc(S(N)(=O)=O)s2)cc1
  Ki: 3.9 nM

## Nc1c(I)cc(S(N)(=O)=O)cc1I
  Ki: 879 nM

## NS(=O)(=O)c1ccc(CO)cc1
  Ki: 4260 nM

## NNc1ccccc1S(N)(=O)=O
  Ki: 8850 nM

## Nc1ccc(S(N)(=O)=O)cc1 [SULFANILAMIDE]
  Ki: 7700 nM

## O=C1NS(=O)(=O)c2ccccc21 [SACCHARIN]
  Ki: 751 nM

## NS(=O)(=O)c1nnc(NS(=O)(=O)c2ccccc2)s1 [BENZOLAMIDE]
  Ki: 32 nM

## Cc1ccc(S(N)(=O)=O)cc1 [P-TOLUENESULFONAMIDE]
  Ki: 675 nM

## NS(=O)(=O)c1ccc(CCO)cc1
  Ki: 1380 nM

## NS(=O)(=O)c1ccc(C(=O)O)cc1 [CARZENIDE]
  Ki: 1210 nM

## NS(=O)(=O)c1ccc(S(=O)(=O)Nc2cccc3c(Cl)c[nH]c23)cc1
  Ki: 423 nM

## Nc1ccc(S(=O)(=O)NCCc2ccc(S(N)(=O)=O)cc2)cc1
  Ki: 16 nM

## Cc1ccc(-c2cc(C(F)(F)F)nn2-c2ccc(S(N)(=O)=O)cc2)cc1 [CELECOXIB]
  Ki: 732 nM

## Nc1ccc(S(N)(=O)=O)cc1Cl
  Ki: 884 nM

## CCN[C@H]1CN(CCCOC)S(=O)(=O)c2sc(S(N)(=O)=O)cc21 [BRINZOLAMIDE]
  Ki: 278 nM

## NCc1ccc(S(N)(=O)=O)cc1 [MAFENIDE]
  Ki: 973 nM

## NS(=O)(=O)c1ccc(CCNC(=O)c2ccc(S(N)(=O)=O)cc2)cc1
  Ki: 34 nM

## NNc1ccc(S(N)(=O)=O)cc1
  Ki: 6080 nM

## Nc1nccc(Nc2ccc(S(N)(=O)=O)cc2)n1
  Ki: 54 nM

## CC1(C)O[C@@H]2[C@@H](CO[C@@]3(COS(N)(=O)=O)OC(C)(C)O[C@@H]23)O1 [TOPIRAMATE]
  Ki: 38 nM

## Nc1c(F)cc(S(=O)(=O)Nc2nnc(S(N)(=O)=O)s2)cc1Cl
  Ki: 2.8 nM

## NCCc1ccc(S(N)(=O)=O)cc1
  Ki: 715 nM

## Nc1ccc(S(N)(=O)=O)cc1F
  Ki: 890 nM

## Nc1c(Br)cc(S(N)(=O)=O)cc1Br
  Ki: 965 nM
